The source of these data is patent US10172821B2, “Histone deacetylase inhibitors” (President & Fellows of Harvard College, priority 2006, dated 2019).

Each structure is given as a SMILES string.

Data set [1] can be described thus: Degradation of SAHP in serum. Type of data set: in vitro ADME. The method, then: In less than 15 minutes, SAHP is completely degraded.
In less than 2 minutes, SAHP is completely degraded into phenol and the corresponding carboxylic acid.

The subject of data set [2] is acetylated histones (AcH3K18). Nature of the data set: Pharmacodynamic effect by immunohistochemical staining for acetylated histones. Type of data set: in vivo. Conditions: SAHP-treated mice compared to vehicle treated controls; FIG. 15.
The test system of data set [3] is Transformed lymphocytes derived from involved skin of IL-7 transgenic mice (lymphoproliferative disease similar to human cutaneous T-cell lymphoma). Nature of the data set: Topical treatment of mice with lymphoproliferative skin disease (CTCL model), histopathologic examination. It is filed as in vivo. As to conditions: daily, fourteen days of therapy, versus vehicle control, FIG. 14. An excerpt: FIG. 14. Interleukin-7 is a growth factor for T-cell development, in particular the gamma-delta subset. Transgenic mice overexpressing IL-7 in keratinocytes were developed by the laboratories of Thomas Kupper and Benjamin Rich, using a tissue-specific keratin-14 promoter element. These mice have been reported to develop a characteristic lymphoproliferative skin disease grossly and histologically similar to human cutaneous T-cell lymphoma (CTCL). Transformed lymphocytes derived from involved skin were passaged ex vivo and injected into syngeneic (non-transgenic) mice. After fourteen days, these mice develop a homogeneous lymphoproliferative disease. Two cohorts of five mice were included in a prospective study of topical, daily suberoyl hydroxamic acid phenyl ester (SAHP, also known as SHAPE) versus vehicle control. After fourteen days of therapy, mice were sacrificed and the treated region was dissected for histopathologic examination.

In the case of `O=C(CCCCCCC(=O)Oc1ccccc1)NO` [SAHP, suberoyl hydroxamic acid phenyl ester], in data set [1] (FIG. 6), the “time until SAHP is completely degraded in serum” value is given as “less than 15 minutes”. Besides, in data set [1] (more detailed study, FIG. 7), the “time until SAHP is completely degraded into phenol and the corresponding carboxylic acid” value is “less than 2 minutes”. For the same compound, the “AcH3K18 staining (histone hyperacetylation) in treated skin” value in data set [2] is reported as “hyperacetylated histone staining at the margin of compound treatment, with absent nuclear staining in the region of drug response”. In addition, in data set [3], the “lymphomatous infiltration within the treated window (hematoxylin-eosin staining)” value is reported as “marked reduction in lymphomatous infiltration”.
